Reference: patent publication US20100266577A1, “Method of Cancer Treatment with Antagonists of FAS Inhibitors” (priority 2007, published 2010)

test system: BJAB cells; experiment: Fc:FasL-induced apoptosis with CD74-derived peptides; assay type: cell-based; settings: after 24 hours, compared to buffer- and unrelated peptide-treated cells
From the text: A membrane proximal region of CD74-derived peptides disrupts CD74-Fas complexes. […] The CH-11 binding site was mapped to the membrane-proximal CRD3-domain of Fas.^10 We thus predicted that the membrane-proximal region of CD74 may be involved in the interaction with Fas. We designed four 20 amino acids long peptides with five amino acid overlaps spanning this region of CD74 (FIG. 16A).
The goal of this example was to design and identify peptides that compete with the Fas-CD74 complex in order to enhance Fas-mediated apoptosis. […] In order to better define competing peptides and peptides with apoptosis activity, we tested shorter peptides. We incubated seven amino acid length peptides (7mer 1, 7mer 2, and 7mer3) with BJAB cells and then stimulated apoptosis using recombinant Fas ligand (Fc:FasL).

| Substance | Fas ligand-induced apoptosis (7mer peptides) |
| --- | --- |
| DKLTVTS [7mer 3] | significantly enhanced levels of Fas ligand-induced apoptosis |
| QQQGRLD [7mer 1] | significantly enhanced levels of Fas ligand-induced apoptosis |
| GRLDKLT [7mer 2] | significantly enhanced levels of Fas ligand-induced apoptosis |
